What was measured:
[1] = BT2 formulation analysis by RRLC-MS/MS and LC/MS (stability); assay type: physicochemical; details: for discrepancy in BT2 content: 6 weeks storage at 22° C.
Experimental: BT2 formulation analysis using RRLC-MS/MS. A rapid resolution liquid chromatography/tandem mass spectrometry (RRLC-MS/MS) method was developed under GLP by Iris Pharma using an Agilent 1200 Triple Quad G6410B to determine BT2 content in heat-treated or non-heat treated BT2 formulations at 1 week (T1 week) or 6 weeks (T6 weeks) after preparation at room temperature. The formulations were heat (H)-treated (tubes placed in a 100° C. water bath for 10 min) or non-heat treated sonicated formulations of BT2 in saline containing 0.5% Tween 80 and 0.01% DMSO). Standard curves were constructed with 8 concentrations between the lower limit of quantification (LLOQ) and the upper limit of quantification (ULOQ). Evaluations were performed on 3 preparations at the same dilution. Chromatograms were integrated using MassHunter software. For BT2 content analysis (T1 week and T6 weeks), calculation of mean, SD, CV (%) and bias (%) were performed as follows: For T1, the theoretical concentration (i.e. the weighed/formulated material supplied) was used as reference to calculate the bias (%) of each preparation containing the test sample:
Standard curves were fitted using Excel® version 2011. For each run, bias on back-calculated concentration of the standard curve and QC was determined, with back-calculated concentrations of the calibration standards being set within ±15% of the theoretical value, except for the LLOQ for which it was set within ±20%. At least 75% of the calibration standards, with a minimum of six, must have had to fulfil this criterion and the coefficient of determination (r^2) was set at ≥0.98.
BT2 formulation analysis using liquid chromatography mass spectrometry (LC/MS). DMSO (100 μl) and samples (˜50 μl) were combined along with formic acid (1 μl). These solutions (10 μl) were further diluted with H2O:CH3CN (1:1) 0.1% formic acid (90 μl) for LC/MS analysis. Samples were separated by UPLC using an HPG-3400RS UPLC pump, autosampler and column compartment system (Thermo Scientific, CA). Samples (0.1 μl) were loaded onto a Hypersil Gold aQ column (2.1×50 mm) containing 1.9μ media (Thermo Scientific). Compounds were eluted using a linear gradient of H2O:CH3CN with A containing H2O (0.1% formic acid) and B containing H2O:CH3CN (1:4, 0.1% formic acid). The gradient was: T=0 min 2% B, T=20 min 75% B, T=23 min 95% B, T=25 min, 95% B, T=25.2 min 2% B, T=30 min, 2% at 200 μl/min over 30 min. The column oven was heated to 45° C. Positive ions were generated by electrospray and the QExactive Plus mass spectrometer (Thermo Fisher, Bremen, Germany) operated in data dependent acquisition mode (DDA). The heated electrospray source (HESI) was used with a high voltage 3.8 kV applied; a vaporizer temp of 250° C.; sheath gas 20; aux gas 5 and the heated capillary set to T=290° C. […]

BAEC = assay: Endothelial dual chamber migration assay toward VEGF-A165; assay type: cell-based, bovine; details: 1 μM; Transwell; 10% FBS and 50 ng/ml VEGF-A165 in lower chamber; 24 h
Experimental: Endothelial dual chamber migration assay. BAEC (6×10^3 cells/well) suspended in DMEM supplemented with 10% FBS were seeded into the upper chamber of 24-well plates fitted with Millicell cell culture inserts (cat. PI8P01250, Millipore). After 48 h, the medium was changed to DMEM supplemented with 0.01% FBS and the cells were incubated for 48 h. Compounds prepared in DMEM containing 0.01% FBS were added to the upper chamber. VEGF-A165 (50 ng/ml, Sigma, cat. V7259) in medium containing 10% FBS was added to the lower chamber. After 24 h, medium from the upper chamber was removed and a cotton swab was used to remove non-migrated cells and excess liquid. The insert was placed in 70% ethanol for 10 min to allow cell fixation and membranes were dried for 10-15 min. Filters were excised and placed on slides. Mounting medium (Fluoroshield™ with DAPI, Sigma, cat. 6057) was added and specimens were visualized using an EVOS FL microscope.

[2] = Solubility on dilution in medium containing serum; assay type: physicochemical
HY79b pigmented rabbits = assay: Rabbit retinal vascular hyperpermeability model induced by rhVEGF-A165; assay type: in vivo
Experimental: Rabbit retinal vascular hyperpermeability model. Male HY79b pigmented rabbits (8-12 week-old) were anesthetized by an intramuscular injection of Rompun® (xylazine)/Imalgene® (ketamine). Compound (600 μg BT2, BT3 or saline vehicle containing 0.5% Tween 80 and 10% DMSO vehicle in 100 μl) was injected into the right eye 5d prior to rhVEGF-A165 induction. Injections were performed on anesthetized animals under an operating microscope using a 250 μl Hamilton syringe (fitted with 30G needle). Retinal vascular permeability was induced by a single 50 μl IVT injection of 500 ng rhVEGF-A165 (diluted in PBS with carrier protein) into the right eye. Forty-seven hours (+/−3 h) after induction, sodium fluorescein (10% in saline, 50 mg/kg) was injected into the marginal ear vein. One hour after fluorescein injection, animals were anaesthetized and pupils were dilated by instillation of one drop of 0.5% tropicamide. Ocular fluorescence in both eyes was measured with a FM-2 Fluorotron Master ocular fluorophotometer. Animals were euthanized by injection of pentobarbital.

Compound | stability of formulation after autoclaving ([1]; autoclaved (121° C., 15 psi, 20 min), 4 months storage at 22° C., LC/MS) | discrepancy in BT2 content ([1]; heat-treated formulation (100° C. for 10 min), RRLC-MS/MS) [%] | degradation of stored formulation ([1]; heat-treated or not, storage up to 16 months, RRLC-MS/MS) | discrepancy in BT2 content ([1]; non-heat treated formulation, RRLC-MS/MS) [%] | migration of BAEC toward VEGF-A165 (BAEC) | effect of serum in the diluent on solubility ([2]; adding serum to the diluent) | inhibition of retinal leakage induced by rhVEGF-A165 (HY79b pigmented rabbits; single IVT 600 μg, 5 d before induction, after 2 days) [%] | solubility relative to BT2 and analogues ([2]; dilution in medium containing serum) | effect on retinal vascular leakage induced by rhVEGF-A165 (HY79b pigmented rabbits; IVT 600 μg, fluorescence ratio R/L)
CCOC(=O)Nc1ccc2c(c1)C(=O)N(CC)c1ccccc1O2 [BT2, (10-ethyl-11-oxo-10,11-dihydro-dibenzo[b,f][1,4]oxazepin-2-yl)-carbamic acid ethyl ester] | remained stable | 1 | no loss in biological efficacy or degradation | 0.2 | inhibited migration | increased BT2 solubility | ~50 |  | 
CCN1C(=O)c2cc(N)ccc2Oc2ccccc21 [BT3, 2-amino-10-ethyldibenzo[b,f][1,4]oxazepin-11 (10H)-one] |  |  |  |  | neither BT3, nor PD98059 (allosteric MEK inhibitor), imatinib (tyrosine kinase inhibitor) or tofacitinib (Janus kinase inhibitor) had an inhibitory effect |  |  | the most soluble of all these dibenzoxazepinones | inactive

From patent publication US20260102407A1, “TREATMENT METHODS” (priority 2020, published 2026)
